Assays:
[1] = tested on: dog blood; experiment: In vitro hemolysis of whole blood, dog; conditions: 0.1 and 1.0 mg/mL, vehicles containing hydroxypropyl-β-cyclodextrin
[2] = Distribution into blood cells; type: in vitro ADME
[3] = tested on: KMS-28-BM; experiment: Cell viability (CellTiterGlo), KMS-28-BM; type: cell-based; conditions: Multiple myeloma, 24 hours, 10% FBS, read-out: AMS 176 IC50
[4] = tested on: KMM1; experiment: Cell viability (CellTiterGlo), KMM1; type: cell-based; conditions: KMM-1; KMM1, Multiple myeloma; 24 hours; 10% FBS; read-out: AMS 176 IC50
[5] = tested on: MM1R; experiment: Cell viability (CellTiterGlo), MM1R; type: cell-based; conditions: MM.1R, Multiple myeloma, 24 hours, 10% FBS, read-out: AMS 176 IC50
[6] = Pharmacokinetics in rats; conditions: male, Sprague Dawley, rat, in vivo, read-out: mean terminal elimination half-life (t1/2,z) (converted)
Source text: (§1) The pharmacokinetics (PK) of the compound of Formula I after single intravenous (IV) or oral administration were characterized in male CD1 mice, female athymic nude mice, male Nu/Nu mice, male Sprague Dawley rats, male beagle dogs, and male cynomolgus monkeys. The clearance (CL) of the compound was low in mice, rats, dogs, and monkeys relative to their hepatic blood flow. Volume of distribution at steady state (Vss) in mice, rats, dogs, and monkeys was variable across the species.

[7] = tested on: RL; experiment: Cell viability (CellTiterGlo), RL; type: cell-based; conditions: Homo sapiens, NHL, 24 hours, 10% FBS, high dose 20 μM, read-out: AMS 176 IC50
[8] = tested on: KMS-12-BM; experiment: Cell viability (CellTiterGlo), KMS-12-BM; type: cell-based; conditions: Homo sapiens, Multiple myeloma, 24 hours, 10% FBS, read-out: AMS 176 IC50
[9] = Plasma protein binding in vitro; type: in vitro ADME
[10] = tested on: KMS-28-PE; experiment: Cell viability (CellTiterGlo), KMS-28-PE; type: cell-based; conditions: Multiple myeloma, 24 hours, 10% FBS, read-out: AMS 176 IC50
[11] = tested on: Molm13-Luc orthotopic tumors; experiment: MOLM-13 Luc acute myeloid leukemia orthotopic model; type: in vivo; conditions: for TGI (tumor burden, whole body luminescence): female NSG mice
Protocol: On day 0, 70 female NSG mice were injected IV with 5×10^4 human Molm13-Luc AML tumor cells.

[12] = tested on: Ramos; experiment: Cell viability (CellTiterGlo), Ramos; type: cell-based; conditions: Homo sapiens, NHL, 24 hours, 10% FBS, read-out: AMS 176 IC50
[13] = tested on: OPM2-Luc tumor xenografts; experiment: OPM2-Luc xenograft efficacy, once daily dosing; type: in vivo, mice; conditions: for animals tumor free: day 24
Protocol: OPM2-Luc cells (5×10^6) were implanted subcutaneously into female athymic nude mice. […] Three of 10 animals in the 30 mg/kg group and 10 of 10 animals in the 60 mg/kg group were tumor free on day 24.

[14] = tested on: MOLM-13; experiment: Cell viability (CellTiterGlo), MOLM-13; type: cell-based; conditions: Homo sapiens; MOLM-13, AML; 24 hours; 10% FBS; read-out: AMS 176 IC50
[15] = Pharmacokinetics in mice; type: in vivo
Source text: as §1

[16] = molecular target: T1, MCL1-BAK protein-protein interaction (Homo sapiens, UniProt Q07820); experiment: MCL1-BAK protein-protein interaction PD assay, HEK 293M MCL1(1-327)-Luc/BAK-Luc Matrigel plug model in mice; type: in vivo; conditions: for inhibition of MCL1-BAK protein-protein interaction, as measured by luciferase activity: 2-, vs vehicle p<0.0025, female athymic nude mice
T1 construct: human MCL1 encoding amino acids 1-327 and full-length human BAK; expressed in transfected cells; host or cells: HEK 293M cells, stably transfected, in Matrigel plugs in female athymic nude mice
T1 sequence (Q07820 1-327): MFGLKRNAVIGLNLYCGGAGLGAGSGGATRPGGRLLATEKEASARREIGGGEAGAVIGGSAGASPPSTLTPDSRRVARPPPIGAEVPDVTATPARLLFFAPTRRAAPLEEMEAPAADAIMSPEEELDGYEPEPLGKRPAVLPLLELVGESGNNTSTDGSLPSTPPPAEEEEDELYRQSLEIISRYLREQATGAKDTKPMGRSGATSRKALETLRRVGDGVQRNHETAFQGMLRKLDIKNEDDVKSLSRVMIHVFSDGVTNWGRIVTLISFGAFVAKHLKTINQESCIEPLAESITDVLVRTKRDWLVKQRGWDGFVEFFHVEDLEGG
Source text: The inhibition of MCL1-BAK protein-protein interaction was used as a pharmacodynamics (PD) assay in HEK 293M cells stably transfected so as to express the N-terminal fragment of human MCL1 encoding amino acids 1-327 and full-length human BAK, linked to the N- and C-terminal fragments of firefly luciferase, respectively (interaction between MCL1 [1-327] and BAK results in the complementation of the C- and N-terminal fragments of luciferase and the formation of active luciferase).

[17] = in vivo
[18] = tested on: OPM2-Luc tumor xenografts; experiment: OPM2-Luc xenograft efficacy, once-weekly dosing; type: in vivo
Protocol: Female athymic nude mice were injected subcutaneously with 5×10^6 human OPM2-Luc multiple myeloma tumor cells. […] Tumor volume and body weight were measured twice per week through day 26. […] In the 50 mg/kg intraperitoneal group, 98% regression was observed (p<0.0001) (FIG. 6).

[19] = tested on: Pfeiffer; experiment: Cell viability (CellTiterGlo), Pfeiffer; type: cell-based; conditions: Homo sapiens, NHL, 24 hours, 10% FBS, read-out: AMS 176 IC50
[20] = tested on: Namalwa; experiment: Cell viability (CellTiterGlo), Namalwa; type: cell-based; conditions: NHL, 24 hours, 10% FBS, read-out: AMS 176 IC50
[21] = tested on: OPM2-Luc orthotopic tumors; experiment: OPM2-Luc multiple myeloma orthotopic model, AMG 176 plus carfilzomib; type: in vivo; conditions: AMG 176 20 mg/kg orally once daily; carfilzomib 3 mg/kg IV twice weekly; day 4 until day 20; female NSG mice
Protocol: On day 0, female NSG mice were injected IV with 1×10^6 OPM2-Luc human OPM2-Luc multiple myeloma tumor cells transfected with the firefly luciferase gene.

[22] = tested on: KMS26; experiment: Cell viability (CellTiterGlo), KMS26; type: cell-based; conditions: KMS-26; KMS26, Multiple myeloma; 24 hours; 10% FBS; read-out: AMS 176 IC50
[23] = tested on: human blood; experiment: In vitro hemolysis of whole blood, human; conditions: highest concentration tested, 0.25 mg/mL
[24] = molecular target: Dog MCL1 (Canis lupus familiaris, UniProt Q8HYS5); experiment: Cell-free TR-FRET BIM-binding assay, Dog MCL1; conditions: BIM-binding partner Dog MCL1; n = 3
Chain of Dog MCL1 (Q8HYS5 whole entry): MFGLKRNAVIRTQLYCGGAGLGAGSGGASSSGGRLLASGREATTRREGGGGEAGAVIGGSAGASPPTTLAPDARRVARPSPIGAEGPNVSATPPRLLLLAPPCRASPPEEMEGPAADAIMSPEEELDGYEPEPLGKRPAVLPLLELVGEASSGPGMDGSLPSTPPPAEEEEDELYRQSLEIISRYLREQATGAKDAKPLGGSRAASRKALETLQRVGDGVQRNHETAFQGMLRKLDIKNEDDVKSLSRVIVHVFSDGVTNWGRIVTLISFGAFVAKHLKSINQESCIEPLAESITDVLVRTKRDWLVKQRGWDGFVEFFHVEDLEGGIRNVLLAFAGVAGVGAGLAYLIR

In the case of CO[C@H]1/C=C/C[C@H](C)[C@@H](C)S(=O)(=O)NC(=O)c2ccc3c(c2)N(C[C@@H]2CC[C@H]21)C[C@@]1(CCCc2cc(Cl)ccc21)CO3 [AMG 176], the “hemolysis of whole blood” value [1] is reported as “cased hemolysis”, the “distribution into blood cells” value [2] is reported as “did not preferentially distribute into blood cells” and the IC50 [3] is reported as 205 nM. The IC50 [4] was 407 nM, the IC50 [5] was 1140 nM and the half-life [6] was 19.5 h. The IC50 [7] was over 20000 nM, the IC50 [8] was 15 nM and the plasma protein binding [9] was “highly plasma-protein bound”. The IC50 [10] was 12000 nM, the “TGI (tumor burden, whole body luminescence)” value ([11]; 30 mg/kg oral QD2) was 28% and the “TGI (tumor burden, whole body luminescence)” value ([11]; 60 mg/kg oral QD2) was 69%. The “TGI (tumor burden, whole body luminescence)” value ([11]; 100 mg/kg oral QD) was 86%, the “overt toxicity by changes in body weight” value ([11]; all AMG 176 groups) was “No evidence of overt toxicity” and the IC50 [12] was 34 nM. For the same compound, the TGI ([13]; 20 mg/kg once daily oral gavage, p<0.001) was 63%, the “effect on established OPM2-Luc tumors” value ([13]; 30 mg/kg and 60 mg/kg orally once daily, summary statement) was “tumor regression” and the tumor regression ([13]; 30 mg/kg once daily oral gavage, p<0.001) was 50%. The animals tumor free ([13]; 30 mg/kg once daily) was “Three of 10”, the tumor regression ([13]; 60 mg/kg once daily oral gavage, p<0.0001) was 100% and the animals tumor free ([13]; 60 mg/kg once daily) was 10 of 10. The “changes in body weight and body score assessment” value ([13]; 10-60 mg/kg once daily oral gavage) was “no evidence of AMG 176-related changes”, the IC50 [14] was 241 nM and the “mean terminal elimination half-life (t1/2,z)” value [15] was 13.8 h. The “inhibition of MCL1-BAK protein-protein interaction, as measured by luciferase activity” value (“inhibition … by luciferase activity” below) ([16]; 3 mg/kg, 8-, 12-, and 24-hour time points) was “Statistically significant inhibition”, the “inhibition … by luciferase activity” value ([16]; 10 mg/kg, 4-, 8-, and 12-hour time points) was “Statistically significant inhibition” and the “inhibition … by luciferase activity” value ([16]; 30 mg/kg, 4-, 8-, 12-, and 24-hour time points) was “Statistically significant inhibition”. For the same compound, the “inhibition of the interaction between human MCL1 and human BAK in vivo” value ([16]; summary statement) was “dose-dependent inhibition”, the phototoxicity [17] was “not phototoxic” and the tumor regression ([18]; 50 mg/kg intraperitoneally once per week) was 98%. The TGI ([18]; 50 mg/kg orally once per week) was 97%, the animals tumor free ([18]; 100 mg/kg once per week, day 26) was “Five out of 10” and the “tumor growth inhibition (TGI)” value ([18]; 100 mg/kg once-weekly oral, as stated in summary b107) was 70%. The tumor regression ([18]; 100 mg/kg orally once per week) was 70%, the “overt toxicity by changes in body weight” value ([18]; once-weekly dosing groups) was “No evidence of overt toxicity” and the IC50 [19] was 18900 nM. The IC50 [20] was 237 nM, the “TGI (tumor burden)” value [21] was 86% and the IC50 [22] was 248 nM. For the same compound, the “hemolysis of whole blood” value [23] was “not hemolytic” and the IC50 [24] was 0.284 nM.
